Source: patent US20060270640A1, “Method of preventing, medicating, and/or treating hypocalcemia of domestic mammal” (Mercian Corporation, priority 2004, published 2006)
Several values for one entry are separate records, joined by “and”; a condition that tells them apart may be missing. Equal values may be shown once.

Key:
[1] = Dose-response test of 1,25-(OH)2D3, intravaginal vs intravenous: 1,25-(OH)2D3 in plasma and bioavailability (Example 3); format: in vivo, cow; conditions: for concentration at 0 h: read-out: 1,25-(OH)2D3 level in plasma
Method: (§1) Hereinafter, the present invention will further be described with reference to Examples and Comparative Example. However, the present invention is not intended to be limited to them by any means. In the examples described below, a 1,25-(OH)2D3 concentration in plasma was determined using a radioimmunoassay kit (1,25-(OH)2D RIA kit, Immunodiagnostic Systems Limited, UK). The Ca concentrations, inorganic phosphorus (iP) concentrations, and magnesium (Mg) concentrations in plasma and urine were determined by orthocresolphthalein complexone (O-CPC), molybdenum (Mo), and xylidyl blue methods, respectively. A creatinine concentration in urine was determined by a Jaffe method. Calcium (Ca), inorganic phosphorus (iP), and magnesium (Mg) concentrations in urine were indicated in the ratios relative to creatinine (Cre) (Ca/Cre, iP/Cre, and Mg/Cre, respectively).
The dose-response test of 1,25-(OH)2D3 by an intravaginal administration route was performed with five 3 to 9-year-old ovariectomized Holstein cows having body weights of 616 to 804 kg as test animals.
The cows were hitched to a partition after and provided with 5.3 kg of timothy hay, 0.18 kg of alfalfa hay, 0.71 kg of beet pulp pellet, and 1.7 kg of commercially-available grain mix on a daily basis. The cows were measured on a DM basis and freely provided with water. A daily mineral intake was set to 48.4 g for calcium, 20.2 g of inorganic phosphorus, and 12.7 g for magnesium, which sufficiently exceeded the NRC recommendation.
To the five cows, 1,25-(OH)2D3 was respectively administered at 0.125, 0.25, 0.5, and 1.0 μg/kg (by body weight) as an intravaginal dose level and 1.0 μg/kg (by body weight) as an intravenous injection dose level at an interval of 2 weeks or more according to a 5×5 Latin square design.
The 1,25-(OH)2D3 (manufactured by Mercian Corporation) used was in the form of crystalline powder, which was dissolved in 99% ethanol at 200 μg/mL and cryopreserved at −20° C. until use.
A drug composed of 5 mL of 20% ethanol solution containing 1,25-(OH)2D3 at 0.125, 0.25, 0.5, or 1.0 μg/kg (by body weight) was administered to a vaginal lumen using a Split Universal Sheath (IMV Int. CO., France) by a rectovaginal cavity method. The vulva was then bonded with an adhesive in order to prevent the 1,25-(OH)2D3 solution from being unintentionally excreted from the vaginal lumen. Intravenous administration was performed using a cannula (14-ga cannula for animals, manufactured by Nipro Medical Industries Ltd.) mounted in advance for the collection of a blood sample.
A heparinized blood sample was collected through the cannula immediately before the administration of 1,25-(OH)2D3 (0 hour) and at 2, 4, 6, 12, 24, 48, 72, 96, and 120 hours after administration.
Next, the blood was immediately centrifuged, and 1,25-(OH)2D3, calcium, inorganic phosphorus, and magnesium concentrations in plasma were determined.
It is noted that the bioavailability was determined by comparing an area under the plasma concentration-time curve (AUC) between the cow to which 1,25-(OH)2D3 was intravaginally administered at 1.0 μg/kg (by body weight) and the cow to which the same amount of 1,25-(OH)2D3 was intravenously administered, and a AUC ratio between intravaginal administration and intravenous administration was indicated by percentage.

[2] = Intravaginal 1,25-(OH)2D3 in raised cows: 1,25-(OH)2D3 concentration in plasma, RIA (Example 2); format: in vivo, cow
Method: as §1
(§2) For confirming the absorption in the vagina of 1,25-(OH)2D3 administered to the vaginal cavities of cows, biochemical changes of 1,25-(OH)2D3 and minerals in blood were observed after the intravaginal administration of 1,25-(OH)2D3 to cows.
(§3) Six Holstein cows (3 to 6 months olds, 97 to 118 kg in body weights) that were clinically healthy were raised and domesticated for at least 1 week in the same fence by providing them with feed (1.56 kg of grass, 0.55 kg of formula feed, and 1.44 kg of alfalfahey cube in dried forms) having a daily mineral intake of 21 g of Ca, 13 g of P, and 4 g of Mg that satisfies requirements stipulated by NRC (National Research Council) on a daily basis and free water drinking.
(§4) To each of five of the cows, 1,25-(OH)2D3 (crystal manufactured by Mercian Corporation dissolved in 99% ethanol to bring its concentration to 1 mg/mL and cryopreserved at −20° C. until just before use) was intravaginally administered at 1 μg per kg of body weight.
Intravaginal administration was performed using a 14-gauge, 64 mm-long cannula with an indwelling needle for injection (Surflo, Terumo Co. Ltd., Tokyo) and a plastic pump (Top Plastic Syringe, Top Surgical Taiwan Corporation, Taiwan). […]

[3] = Intravaginal 1,25-(OH)2D3 in raised cows: mineral (Ca, iP, Mg) concentrations in plasma (Example 2); format: in vivo, cow
Method: as §1, §2, §3, §4
Intravaginal administration was performed using a 14-gauge, 64 mm-long cannula with an indwelling needle for injection (Surflo, Terumo Co. Ltd., Tokyo) and a plastic pump (Top Plastic Syringe, Top Surgical Taiwan Corporation, Taiwan).
To the other cow, 3.0 mL of 99% ethanol was administered as a control.
A heparinized blood sample was collected from a jugular vein immediately before administration (0 hour) and at 2, 6, 12, 24, 48, 72, and 96 hours after administration.
The biochemical value of blood was indicated as a means±standard deviation. For observing the effect of the intravaginal administration of 1,25-(OH)2D3, repeated measures analysis of variance was used. When the effect was significant, a statistical test was conducted by the Dunnett's multiple comparison between the value at 0 hour and each value after administration. The significant difference was set to P<0.05.

[4] = in vivo; cited from earlier work
[5] = intravenous, four dose levels (30, 90, 270, and 600 μg); increase not directly related to dose; cited from earlier work
[6] = 0 hour, intravaginal 1 μg/kg, n=5

Q: With `C=C1/C(=C\C=C2/CCC[C@]3(C)[C@@H]([C@H](C)CCCC(C)(C)O)CC[C@@H]23)C[C@@H](O)C[C@@H]1O` [1,25-(OH)2D3, 1,25-dihydroxyvitamin D3] as the compound, how does the “1,25-(OH)2D3 level in plasma, peak” value ([1]; 2 hours after intravaginal 0.125 μg/kg) read?
A: The value was 2219.3 ± 812.0 pg/mL.

Q: And the “1,25-(OH)2D3 level in plasma, peak” value ([1]; 2 hours after intravaginal 0.25 μg/kg)?
A: The value was 3448.7 ± 737.9 pg/mL.

Q: What about the “1,25-(OH)2D3 level in plasma, peak” value ([1]; 2 hours after intravaginal 0.5 μg/kg) of the same compound?
A: The value was 6388.5 ± 1127.4 pg/mL.

Q: And the “1,25-(OH)2D3 level in plasma, peak” value ([1]; 2 hours after intravaginal 1.0 μg/kg)?
A: The value was 12315.7 ± 2288.3 pg/mL.

Q: What about the bioavailability ([1]; female, Holstein, bovine, plasma, other: intravaginal, 1 μg/kg, intravaginal vs intravenous, ovariectomized cows, read-out: bioavailability, share of 1,25-(OH)2D3 administered to the vaginal lumen entering the circulatory system) of the same compound?
A: The bioavailability was ~93%.

Q: And the concentration at 0 h ([1]; female, Holstein, bovine, plasma, other: intravaginal, intravaginal 0.125 μg/kg, ovariectomized cows)?
A: Its concentration at 0 h is 7.4 ± 5.3 pg/mL.

Q: What about the concentration at 0 h ([1]; female, Holstein, bovine, plasma, other: intravaginal, intravaginal 0.25 μg/kg) of the same compound?
A: The concentration at 0 h was 6.5 ± 1.3 pg/mL.

Q: And the concentration at 0 h ([1]; female, Holstein, bovine, plasma, other: intravaginal, intravaginal 0.5 μg/kg)?
A: Its concentration at 0 h is 8.7 ± 5.6 pg/mL.

Q: And the concentration at 0 h ([1]; female, Holstein, bovine, plasma, other: intravaginal, intravaginal 1.0 μg/kg)?
A: Its concentration at 0 h is 6.6 ± 1.6 pg/mL.

Q: What about the “individual bioavailability (AUC ratio intravaginal/intravenous)” value ([1]; intravaginal 1.0 μg/kg vs intravenous 1.0 μg/kg, one value per each of the five cows) of the same compound?
A: Its value is 71.1% and 124.2% and 113.3% and 90.0% and 66.5%.

Q: And the “time of peak 1,25-(OH)2D3 level in plasma after administration” value ([1]; intravaginal 0.125, 0.25, 0.5 and 1.0 μg/kg)?
A: The value was 2 h.

Q: What about the “dose dependence of absorption from the vaginal wall” value ([1]; intravaginal, four doses 0.125-1.0 μg/kg) of the same compound?
A: Its value is “absorbed from the vaginal wall proportionately with a dose”.

Q: And the concentration at 6 h ([2]; female, Holstein, bovine, plasma, other: intravaginal, 6 hours after intravaginal 1 μg/kg, n=5, p<0.01 vs 0 hour)?
A: The concentration at 6 h was 1.97 ± 1.14 ng/mL.

Q: What about the concentration at 0 h ([2]; female, Holstein, bovine, plasma, other: intravaginal, before administration (0 hour), intravaginal 1 μg/kg, n=5 raised cows, mean±SD) of the same compound?
A: The concentration at 0 h was 0.0883 ± 0.0203 ng/mL.

Q: And the “absorption from the vaginal wall of a cow” value ([2]; intravaginal 1 μg/kg, sudden rise in plasma at 2 hours)?
A: Its value is “confirmed”.

Q: And the Mg in plasma [3, 6]?
A: The Mg in plasma was 2.1 ± 0.1 mg/dL.

Q: And the iP in plasma [3, 6]?
A: The iP in plasma was 7.3 ± 0.5 mg/dL.

Q: What about the iP in plasma ([3]; 6 hours after intravaginal 1 μg/kg, P<0.05 vs 0 hour) of the same compound?
A: Its iP in plasma is 8.1 ± 0.8 mg/dL.

Q: And the iP in plasma ([3]; 24 hours (start of 24 to 96 hours) after intravaginal 1 μg/kg, P<0.01)?
A: Its iP in plasma is 9.1 ± 0.7 mg/dL.

Q: And the Mg in plasma ([3]; 24 hours after intravaginal 1 μg/kg, P<0.01 vs 0 hour)?
A: The Mg in plasma was 1.8 ± 0.1 mg/dL.

Q: And the “Ca concentration in plasma, maximum value” ([3]; 24 hours after intravaginal 1 μg/kg, n=5, significantly (P<0.01) high at 12 to 72 hours)?
A: Its value is 11.96 ± 0.7 mg/dL.

Q: What about the Mg in plasma ([3]; 48 hours after intravaginal 1 μg/kg, P<0.01 vs 0 hour) of the same compound?
A: The Mg in plasma was 1.8 ± 0.1 mg/dL.

Q: What about the iP in plasma ([3]; 96 hours (end of 24 to 96 hours) after intravaginal 1 μg/kg, P<0.01) of the same compound?
A: Its iP in plasma is 8.6 ± 0.6 mg/dL.

Q: What about the “Ca concentration in plasma” value ([3]; before administration, intravaginal 1 μg/kg, n=5) of the same compound?
A: Its value is 10.4 ± 0.4 mg/dL.

Q: And the “bioavailability of 1,25-(OH)2D3” value [4]?
A: Its value is 62% and 67%.

Q: And the “excretion of calcium into urine” value [5]?
A: Its value is “increases”.
